Values quoted from earlier work as cited in patent US20120015968A1, “USE OF PYRIMIDYLAMINOBENZAMIDE DERIVATIVES FOR THE TREATMENT OF DISORDERS MEDIATED BY THE LEUCINE ZIPPER-AND STERILE ALPHA MOTIF-CONTAINING KINASE (ZAK)” (NOVARTIS AG, priority 2009, published 2012).
pIC50: −log10 of the molar value.

Biological target: ZAK (Homo sapiens, UniProt Q9NYL2)
Details: biotinylated myelin basic protein as substrate; U. Rix et al, Leukemia (2010) 24, 44-50, p. 48; read-out: IC50 of inhibition of ZAK activity

Chain of ZAK (Q9NYL2 whole entry): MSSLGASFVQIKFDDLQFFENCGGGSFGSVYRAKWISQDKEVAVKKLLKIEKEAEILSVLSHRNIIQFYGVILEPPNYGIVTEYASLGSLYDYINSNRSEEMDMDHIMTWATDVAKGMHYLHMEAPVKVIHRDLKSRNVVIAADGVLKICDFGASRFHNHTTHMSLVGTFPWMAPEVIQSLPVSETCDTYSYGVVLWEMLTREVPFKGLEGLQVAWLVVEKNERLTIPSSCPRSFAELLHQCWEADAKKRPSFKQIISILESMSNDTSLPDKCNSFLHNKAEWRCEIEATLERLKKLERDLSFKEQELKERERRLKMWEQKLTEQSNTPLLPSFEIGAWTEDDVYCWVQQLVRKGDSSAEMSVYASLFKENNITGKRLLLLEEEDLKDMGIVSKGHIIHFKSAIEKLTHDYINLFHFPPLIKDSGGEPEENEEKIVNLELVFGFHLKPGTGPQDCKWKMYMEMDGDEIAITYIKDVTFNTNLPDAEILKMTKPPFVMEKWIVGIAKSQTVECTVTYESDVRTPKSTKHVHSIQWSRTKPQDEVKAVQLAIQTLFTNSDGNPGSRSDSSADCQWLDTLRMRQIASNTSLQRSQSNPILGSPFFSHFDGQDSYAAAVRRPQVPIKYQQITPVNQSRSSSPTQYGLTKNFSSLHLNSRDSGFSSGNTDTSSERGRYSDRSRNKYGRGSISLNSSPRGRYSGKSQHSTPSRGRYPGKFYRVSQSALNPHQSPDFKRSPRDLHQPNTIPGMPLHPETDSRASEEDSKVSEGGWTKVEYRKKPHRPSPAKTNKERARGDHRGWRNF

Structure (SMILES): Cc1ccc(NC(=O)c2ccc(CN3CC[C@H](N(C)C)C3)c(C(F)(F)F)c2)cc1Nc1nccc(-c2cncnc2)n1 [INNO-406]
- pIC50: 7.14
